Where two headings read alike, the source gives them in different places.
Tests used:
Type in all cases: biochemical
RSK2 = RSK2 (Homo sapiens, UniProt P51812); assay: Kinase profiling RSK2; settings: for residual kinase activity, RSK2: 100 micromolar inhibitor concentration, 100 is no change
Source text: (§1) Any value less that 25 is considered to be highly significant inhibition.

SmMLCK = SmMLCK (Homo sapiens, UniProt Q15746); assay: Kinase profiling SmMLCK; settings: for remaining activity at 100 µM: 100 micromolar inhibitor concentration, 100 is no change, read-out: residual kinase activity, SmMLCK
p38d MAPK = target: T1, p38d MAPK (Homo sapiens, UniProt O15264); assay: Kinase profiling p38d MAPK; settings: for residual kinase activity, p38d MAPK: 100 micromolar inhibitor concentration, 100 is no change
T1 sequence (O15264 1-365): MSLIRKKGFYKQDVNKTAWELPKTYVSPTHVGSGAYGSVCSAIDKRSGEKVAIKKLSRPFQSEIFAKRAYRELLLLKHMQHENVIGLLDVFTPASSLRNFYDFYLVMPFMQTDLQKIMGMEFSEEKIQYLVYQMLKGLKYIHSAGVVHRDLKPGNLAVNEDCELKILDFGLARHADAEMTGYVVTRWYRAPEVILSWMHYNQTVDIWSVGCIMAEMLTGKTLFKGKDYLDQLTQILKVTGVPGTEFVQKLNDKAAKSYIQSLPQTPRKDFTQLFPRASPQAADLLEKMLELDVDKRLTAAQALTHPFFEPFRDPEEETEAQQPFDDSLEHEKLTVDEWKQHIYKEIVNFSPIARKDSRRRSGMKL
Source text: as §1

p38a MAPK = p38a MAPK (Homo sapiens, UniProt Q16539); assay: Kinase profiling p38a MAPK; settings: for remaining activity at 100 µM: read-out: residual kinase activity, p38a MAPK
Source text: as §1

STK33 = STK33 (Homo sapiens, UniProt Q9BYT3); assay: Kinase profiling STK33; settings: for residual kinase activity, STK33: 100 micromolar inhibitor concentration, 100 is no change
Source text: as §1

MKK1 = MKK1 (Homo sapiens, UniProt Q02750); assay: Kinase profiling MKK1; settings: for remaining activity at 100 µM: read-out: residual kinase activity, MKK1
Source text: as §1

SGK1 = target: T2, SGK1 (Homo sapiens, UniProt O00141); assay: Kinase profiling SGK1; settings: for remaining activity at 100 µM: read-out: residual kinase activity, SGK1
T2 sequence (O00141 1-431): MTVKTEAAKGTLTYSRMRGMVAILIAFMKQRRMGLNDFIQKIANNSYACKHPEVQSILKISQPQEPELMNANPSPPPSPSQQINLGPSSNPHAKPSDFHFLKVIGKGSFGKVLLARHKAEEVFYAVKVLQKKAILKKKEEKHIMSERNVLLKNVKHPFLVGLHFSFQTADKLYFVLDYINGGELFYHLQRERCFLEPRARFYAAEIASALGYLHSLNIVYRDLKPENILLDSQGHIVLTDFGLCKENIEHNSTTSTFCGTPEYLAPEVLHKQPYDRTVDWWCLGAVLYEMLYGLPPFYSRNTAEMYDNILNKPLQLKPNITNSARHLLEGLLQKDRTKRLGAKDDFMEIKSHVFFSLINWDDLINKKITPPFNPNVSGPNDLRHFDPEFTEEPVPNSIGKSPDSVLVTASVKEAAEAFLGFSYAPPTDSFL
Source text: as §1

MST2 = target: T3, MST2 (Homo sapiens, UniProt Q13188); assay: Kinase profiling MST2; settings: for remaining activity at 100 µM: read-out: residual kinase activity, MST2
T3 sequence (Q13188 1-491): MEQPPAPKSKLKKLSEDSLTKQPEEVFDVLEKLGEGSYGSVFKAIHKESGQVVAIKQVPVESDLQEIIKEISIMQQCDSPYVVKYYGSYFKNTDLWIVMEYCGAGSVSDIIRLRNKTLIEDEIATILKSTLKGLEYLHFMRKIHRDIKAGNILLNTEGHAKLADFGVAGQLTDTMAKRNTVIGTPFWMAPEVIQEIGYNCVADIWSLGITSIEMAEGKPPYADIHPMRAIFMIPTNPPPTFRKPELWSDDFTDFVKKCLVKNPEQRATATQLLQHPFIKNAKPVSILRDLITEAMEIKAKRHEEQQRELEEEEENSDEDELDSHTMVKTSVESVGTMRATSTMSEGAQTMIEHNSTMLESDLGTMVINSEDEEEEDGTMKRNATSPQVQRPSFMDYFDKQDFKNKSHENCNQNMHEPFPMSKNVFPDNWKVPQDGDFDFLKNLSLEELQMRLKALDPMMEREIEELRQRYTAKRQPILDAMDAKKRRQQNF
Source text: as §1

IGF-1R = IGF-1R (Homo sapiens, UniProt P08069); assay: Kinase profiling IGF-1R; settings: for remaining activity at 100 µM: read-out: residual kinase activity, IGF-1R
Source text: as §1

PKBb = PKBb (Homo sapiens, UniProt P31751); assay: Kinase profiling PKBb; settings: for residual kinase activity, PKBb: 100 micromolar inhibitor concentration, 100 is no change
Source text: as §1

TTK = target: T4, TTK (Homo sapiens, UniProt P33981); assay: Kinase profiling TTK; settings: for remaining activity at 100 µM: read-out: residual kinase activity, TTK
T4 sequence (P33981 1-857): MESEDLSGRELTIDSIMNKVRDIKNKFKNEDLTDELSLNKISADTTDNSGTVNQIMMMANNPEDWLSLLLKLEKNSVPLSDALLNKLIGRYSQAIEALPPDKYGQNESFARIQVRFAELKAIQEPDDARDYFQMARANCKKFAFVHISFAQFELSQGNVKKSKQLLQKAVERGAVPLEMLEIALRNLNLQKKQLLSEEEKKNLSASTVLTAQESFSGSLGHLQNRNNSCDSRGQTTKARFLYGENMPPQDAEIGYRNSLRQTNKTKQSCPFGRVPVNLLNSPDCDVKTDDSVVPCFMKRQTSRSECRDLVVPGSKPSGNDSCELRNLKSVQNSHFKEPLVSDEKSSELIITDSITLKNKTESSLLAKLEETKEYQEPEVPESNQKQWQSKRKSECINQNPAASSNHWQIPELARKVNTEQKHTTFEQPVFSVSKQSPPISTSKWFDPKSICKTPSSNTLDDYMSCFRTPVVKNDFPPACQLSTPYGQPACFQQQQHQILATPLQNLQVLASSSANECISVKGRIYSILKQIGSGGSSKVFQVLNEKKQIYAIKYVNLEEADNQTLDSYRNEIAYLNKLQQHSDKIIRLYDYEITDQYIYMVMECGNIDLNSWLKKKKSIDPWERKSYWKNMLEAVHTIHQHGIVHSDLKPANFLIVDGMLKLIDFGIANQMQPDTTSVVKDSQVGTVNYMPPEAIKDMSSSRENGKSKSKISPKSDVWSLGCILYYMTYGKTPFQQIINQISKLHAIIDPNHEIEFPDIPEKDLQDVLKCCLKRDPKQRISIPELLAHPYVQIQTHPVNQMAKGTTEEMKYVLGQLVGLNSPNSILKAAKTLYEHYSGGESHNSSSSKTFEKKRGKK
Source text: as §1

JAK2 = JAK2 (Homo sapiens, UniProt O60674); assay: Kinase profiling JAK2; settings: for remaining activity at 100 µM: read-out: residual kinase activity, JAK2
Source text: as §1

JNK1 = JNK1 (Homo sapiens, UniProt P45983); assay: Kinase profiling JNK1; settings: for remaining activity at 100 µM: read-out: residual kinase activity, JNK1
Source text: as §1

RIPK2 = RIPK2 (Homo sapiens, UniProt O43353); assay: Kinase profiling RIPK2; settings: for remaining activity at 100 µM: read-out: residual kinase activity, RIPK2
Source text: as §1

JNK3 = JNK3 (Homo sapiens, UniProt P53779); assay: Kinase profiling JNK3; settings: for residual kinase activity, JNK3: 100 micromolar inhibitor concentration, 100 is no change
Source text: as §1

[1] = 100 micromolar inhibitor concentration, 100 is no change
[2] = 100 micromolar inhibitor, 100 = no change

JNK3, sequence (P53779 whole entry, species assumed): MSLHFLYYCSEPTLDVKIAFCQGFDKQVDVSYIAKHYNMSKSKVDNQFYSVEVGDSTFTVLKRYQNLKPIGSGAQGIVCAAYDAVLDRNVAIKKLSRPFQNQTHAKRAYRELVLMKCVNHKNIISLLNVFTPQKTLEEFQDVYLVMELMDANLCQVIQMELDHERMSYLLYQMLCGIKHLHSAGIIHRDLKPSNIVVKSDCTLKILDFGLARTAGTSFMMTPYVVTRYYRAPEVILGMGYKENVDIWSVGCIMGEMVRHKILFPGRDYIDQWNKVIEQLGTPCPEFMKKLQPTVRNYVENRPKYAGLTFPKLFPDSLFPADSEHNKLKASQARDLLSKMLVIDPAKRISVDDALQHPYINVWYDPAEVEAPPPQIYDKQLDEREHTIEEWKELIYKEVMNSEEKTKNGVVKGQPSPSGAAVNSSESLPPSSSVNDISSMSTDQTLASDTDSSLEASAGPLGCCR
SmMLCK, sequence (Q15746 923-1914): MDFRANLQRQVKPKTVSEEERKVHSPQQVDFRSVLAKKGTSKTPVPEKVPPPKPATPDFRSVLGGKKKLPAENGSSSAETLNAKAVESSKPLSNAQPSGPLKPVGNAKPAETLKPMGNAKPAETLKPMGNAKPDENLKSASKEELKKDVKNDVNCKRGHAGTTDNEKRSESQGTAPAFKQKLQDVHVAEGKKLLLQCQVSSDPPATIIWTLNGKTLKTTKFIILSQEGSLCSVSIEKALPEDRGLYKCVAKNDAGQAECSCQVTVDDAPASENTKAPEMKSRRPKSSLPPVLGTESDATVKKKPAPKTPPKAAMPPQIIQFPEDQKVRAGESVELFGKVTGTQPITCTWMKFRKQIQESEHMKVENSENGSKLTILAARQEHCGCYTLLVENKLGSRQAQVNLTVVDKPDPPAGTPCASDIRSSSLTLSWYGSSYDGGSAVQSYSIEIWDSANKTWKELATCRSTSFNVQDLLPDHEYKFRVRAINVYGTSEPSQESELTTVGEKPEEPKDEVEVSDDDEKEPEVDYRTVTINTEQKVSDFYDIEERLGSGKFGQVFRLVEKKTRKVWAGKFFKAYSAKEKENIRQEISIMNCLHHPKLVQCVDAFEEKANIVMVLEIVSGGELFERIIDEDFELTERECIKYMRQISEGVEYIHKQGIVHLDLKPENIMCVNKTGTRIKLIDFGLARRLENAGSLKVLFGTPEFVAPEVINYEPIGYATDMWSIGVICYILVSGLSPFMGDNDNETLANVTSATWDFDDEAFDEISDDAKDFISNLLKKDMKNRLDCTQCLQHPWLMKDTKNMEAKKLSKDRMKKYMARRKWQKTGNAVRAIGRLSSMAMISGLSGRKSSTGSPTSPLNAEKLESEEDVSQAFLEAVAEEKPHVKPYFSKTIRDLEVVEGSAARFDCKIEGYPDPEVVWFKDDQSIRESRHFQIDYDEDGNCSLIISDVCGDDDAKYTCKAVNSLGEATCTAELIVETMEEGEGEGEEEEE
PKBb, sequence (P31751 whole entry): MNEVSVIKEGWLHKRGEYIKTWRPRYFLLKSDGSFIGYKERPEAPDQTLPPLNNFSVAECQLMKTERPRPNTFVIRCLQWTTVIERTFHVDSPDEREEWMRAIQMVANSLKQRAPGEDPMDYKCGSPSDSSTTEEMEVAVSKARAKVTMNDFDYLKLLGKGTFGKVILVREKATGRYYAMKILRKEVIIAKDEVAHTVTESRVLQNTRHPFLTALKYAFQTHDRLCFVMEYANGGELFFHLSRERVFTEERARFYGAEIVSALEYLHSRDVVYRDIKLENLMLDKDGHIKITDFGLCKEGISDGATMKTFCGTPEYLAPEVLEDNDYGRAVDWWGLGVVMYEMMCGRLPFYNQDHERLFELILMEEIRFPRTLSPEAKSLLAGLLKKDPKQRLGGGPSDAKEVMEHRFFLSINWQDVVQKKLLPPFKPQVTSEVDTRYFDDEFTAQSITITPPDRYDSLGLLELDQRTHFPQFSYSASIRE
JAK2, sequence (O60674 whole entry, species assumed): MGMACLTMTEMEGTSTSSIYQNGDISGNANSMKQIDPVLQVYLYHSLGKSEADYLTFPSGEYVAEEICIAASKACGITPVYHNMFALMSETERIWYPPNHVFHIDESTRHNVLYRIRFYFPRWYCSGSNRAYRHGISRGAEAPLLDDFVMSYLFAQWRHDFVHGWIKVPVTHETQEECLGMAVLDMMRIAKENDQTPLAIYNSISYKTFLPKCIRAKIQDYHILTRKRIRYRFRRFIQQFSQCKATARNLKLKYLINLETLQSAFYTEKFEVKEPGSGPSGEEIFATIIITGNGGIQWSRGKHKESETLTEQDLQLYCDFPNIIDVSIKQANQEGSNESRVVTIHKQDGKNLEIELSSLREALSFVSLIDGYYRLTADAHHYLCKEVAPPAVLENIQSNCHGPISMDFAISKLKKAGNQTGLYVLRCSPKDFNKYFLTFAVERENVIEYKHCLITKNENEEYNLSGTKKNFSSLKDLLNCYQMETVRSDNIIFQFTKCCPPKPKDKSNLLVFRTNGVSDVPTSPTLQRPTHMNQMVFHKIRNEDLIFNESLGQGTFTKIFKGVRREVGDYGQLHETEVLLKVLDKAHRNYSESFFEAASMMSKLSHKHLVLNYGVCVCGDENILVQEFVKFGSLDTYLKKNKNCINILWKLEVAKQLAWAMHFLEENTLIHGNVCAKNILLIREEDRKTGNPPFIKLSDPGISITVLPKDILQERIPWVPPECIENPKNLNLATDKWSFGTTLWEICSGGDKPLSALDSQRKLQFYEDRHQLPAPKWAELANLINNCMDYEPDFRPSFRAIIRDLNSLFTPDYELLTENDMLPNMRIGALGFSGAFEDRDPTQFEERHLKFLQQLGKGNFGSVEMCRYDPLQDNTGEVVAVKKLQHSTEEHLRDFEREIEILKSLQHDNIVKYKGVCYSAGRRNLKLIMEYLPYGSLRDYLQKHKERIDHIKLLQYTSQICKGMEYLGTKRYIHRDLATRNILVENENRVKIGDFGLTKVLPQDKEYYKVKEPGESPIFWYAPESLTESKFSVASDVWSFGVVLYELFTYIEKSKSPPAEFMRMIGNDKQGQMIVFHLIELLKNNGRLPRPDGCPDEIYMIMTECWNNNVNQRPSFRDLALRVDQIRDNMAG
p38a MAPK, sequence (Q16539 whole entry): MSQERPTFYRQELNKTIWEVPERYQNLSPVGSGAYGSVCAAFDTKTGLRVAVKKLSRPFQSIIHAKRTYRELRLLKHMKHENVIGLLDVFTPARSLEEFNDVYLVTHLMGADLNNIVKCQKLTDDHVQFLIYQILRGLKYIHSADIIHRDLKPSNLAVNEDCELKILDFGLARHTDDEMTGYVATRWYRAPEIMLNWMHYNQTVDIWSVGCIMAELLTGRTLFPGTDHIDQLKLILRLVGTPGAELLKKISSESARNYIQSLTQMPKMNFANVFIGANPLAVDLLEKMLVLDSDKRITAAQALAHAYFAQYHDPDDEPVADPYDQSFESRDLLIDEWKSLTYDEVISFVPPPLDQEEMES
IGF-1R, sequence (P08069 31-1367, species assumed): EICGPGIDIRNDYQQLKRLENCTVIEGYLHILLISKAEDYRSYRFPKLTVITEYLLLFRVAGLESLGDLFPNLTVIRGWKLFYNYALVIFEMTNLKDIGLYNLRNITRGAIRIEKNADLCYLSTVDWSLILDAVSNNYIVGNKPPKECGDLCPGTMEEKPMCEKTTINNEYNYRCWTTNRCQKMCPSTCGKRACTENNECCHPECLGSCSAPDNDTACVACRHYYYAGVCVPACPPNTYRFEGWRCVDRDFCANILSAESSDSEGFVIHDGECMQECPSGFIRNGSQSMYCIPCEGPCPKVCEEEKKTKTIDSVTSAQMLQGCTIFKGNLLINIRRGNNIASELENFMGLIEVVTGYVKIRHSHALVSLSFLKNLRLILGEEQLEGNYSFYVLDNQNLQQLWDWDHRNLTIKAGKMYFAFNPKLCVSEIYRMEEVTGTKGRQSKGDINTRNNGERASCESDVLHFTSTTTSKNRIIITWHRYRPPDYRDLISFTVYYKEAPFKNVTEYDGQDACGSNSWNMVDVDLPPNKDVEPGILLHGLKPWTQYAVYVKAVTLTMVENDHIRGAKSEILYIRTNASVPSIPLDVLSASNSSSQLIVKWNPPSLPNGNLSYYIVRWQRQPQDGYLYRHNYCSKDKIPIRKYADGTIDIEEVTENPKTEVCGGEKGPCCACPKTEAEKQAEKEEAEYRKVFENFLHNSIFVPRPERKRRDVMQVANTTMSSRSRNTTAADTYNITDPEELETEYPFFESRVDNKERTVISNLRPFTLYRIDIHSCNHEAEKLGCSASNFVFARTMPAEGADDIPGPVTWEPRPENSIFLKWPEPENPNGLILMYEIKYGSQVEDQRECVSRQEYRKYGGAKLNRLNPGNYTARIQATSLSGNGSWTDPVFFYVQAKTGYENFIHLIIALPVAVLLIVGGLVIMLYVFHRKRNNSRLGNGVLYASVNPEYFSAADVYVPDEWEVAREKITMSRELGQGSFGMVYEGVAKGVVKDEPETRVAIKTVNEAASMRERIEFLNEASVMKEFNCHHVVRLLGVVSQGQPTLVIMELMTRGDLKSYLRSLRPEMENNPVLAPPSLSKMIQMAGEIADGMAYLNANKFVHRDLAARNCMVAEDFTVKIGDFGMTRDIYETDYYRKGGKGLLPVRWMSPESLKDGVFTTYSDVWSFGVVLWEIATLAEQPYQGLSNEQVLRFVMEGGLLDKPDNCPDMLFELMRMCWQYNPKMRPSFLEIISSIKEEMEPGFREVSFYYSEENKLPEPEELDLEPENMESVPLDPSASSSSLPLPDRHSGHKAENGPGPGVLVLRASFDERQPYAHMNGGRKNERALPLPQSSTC

Structure (SMILES) | residual kinase activity, RSK2 (RSK2) | residual kinase activity, p38d MAPK (p38d MAPK) | residual kinase activity, p38a MAPK (p38a MAPK; [1]) | residual kinase activity, STK33 (STK33) | residual kinase activity, MKK1 (MKK1; [1]) | residual kinase activity, SGK1 (SGK1; [1]) | residual kinase activity, PKBb (PKBb) | residual kinase activity, JNK1 (JNK1; [1]) | residual kinase activity, JNK3 (JNK3) | also measured
CC(=O)Nc1nc2cc(O)ccc2s1 [Compound 01-66, N-(5-hydroxybenzo[d]thiazol-2-yl)acetamide] |  |  |  |  |  |  |  |  |  | remaining activity at 100 µM (RSK2; read-out: residual kinase activity, RSK2): 66%; remaining activity at 100 µM (SmMLCK): 58%; remaining activity at 100 µM (p38d MAPK; read-out: residual kinase activity, p38d MAPK): 70%; remaining activity at 100 µM (p38a MAPK): 84%; remaining activity at 100 µM (STK33; read-out: residual kinase activity, STK33): 52%; remaining activity at 100 µM (MKK1): 31%; remaining activity at 100 µM (SGK1): 77%; remaining activity at 100 µM (MST2): 69%; remaining activity at 100 µM (IGF-1R): 26%; remaining activity at 100 µM (PKBb; read-out: residual kinase activity, PKBb): 55%; remaining activity at 100 µM (TTK): 39%; remaining activity at 100 µM (JAK2): 65%; remaining activity at 100 µM (JNK1): 53%; remaining activity at 100 µM (RIPK2): 29%; remaining activity at 100 µM (JNK3; read-out: residual kinase activity, JNK3): 37%
CC(=O)Nc1cccc(C(=O)Nc2nc3ccc(O)cc3s2)c1 [Compound 03-58] | 51 | 75 | 81 | 45 | 52 | 41 | 80 | 80 | 51 | 
CC(=O)NC(C)C(=O)Nc1nc2ccc(C(F)(F)F)cc2s1 (centres unmarked) [Compound 03-80] | 66 | 102 | 79 | 60 | 80 | 55 | 93 | 86 | 79 | 
CC(=O)Nc1ccccc1C(=O)Nc1nc2ccc(O)cc2s1 [Compound 08-39] | 2 | 67 | 96 | 61 | 106 | 35 | 4 | 92 | 53 | 
CC(=O)Nc1nc2ccc([N+](=O)[O-])cc2s1 [Compound 13-10] |  |  |  |  |  |  |  |  |  | remaining activity at 100 µM (SmMLCK): 58%; remaining activity at 100 µM (p38a MAPK; [1]): 103%; remaining activity at 100 µM (MKK1; [1]): 62%; remaining activity at 100 µM (SGK1; [1]): 58%; remaining activity at 100 µM (MST2; [1]): 97%; remaining activity at 100 µM (IGF-1R; [1]): 91%; remaining activity at 100 µM (TTK; [1]): 55%; remaining activity at 100 µM (JAK2; [1]): 91%; remaining activity at 100 µM (JNK1; [1]): 82%; remaining activity at 100 µM (RIPK2; [1]): 27%
COc1cccc(NC(=O)Nc2nc3cc(O)ccc3s2)c1 [Compound 13-62] |  |  |  |  |  |  |  |  |  | residual kinase activity, SmMLCK (SmMLCK; [2]): 5; residual kinase activity, p38a MAPK (p38a MAPK; [2]): 21; residual kinase activity, MKK1 (MKK1; [2]): 15; residual kinase activity, SGK1 (SGK1; [2]): 21; residual kinase activity, MST2 (MST2; [2]): 3; residual kinase activity, IGF-1R (IGF-1R; [2]): 62; residual kinase activity, TTK (TTK; [2]): 25; residual kinase activity, JAK2 (JAK2; [2]): 31; residual kinase activity, JNK1 (JNK1; [2]): 114; residual kinase activity, RIPK2 (RIPK2; [2]): 6
COc1ccc2sc(NC(=O)c3ccc(NC(C)=O)cc3)nc2c1 [MS:LY-2-77] | 81 | 98 | 109 | 99 | 95 | 101 | 44 | 104 | 88 | 
COc1ccc2sc(NC(=O)c3cccc(NC(C)=O)c3)nc2c1 [MS:LY-2-85] | 32 | 72 | 89 | 75 | 83 | 75 | 22 | 97 | 62 | 
CC(=O)Nc1ccc(C(=O)Nc2nc3cc(O)ccc3s2)cc1 [MS:LY-2-87] | 28 | 75 | 73 | 51 | 69 | 43 | 18 | 105 | 66 | 
CC(=O)Nc1cccc(C(=O)Nc2nc3cc(O)ccc3s2)c1 [MS:LY-2-89] | 8 | 70 | 18 | 37 | 56 | 28 | 7 | 68 | 36 | 

Reference: patent publication US10231954B2, “Neurodegenerative therapies” (LYTIX BIOPHARMA AS, priority 2014, dated 2019)
